Measurements taken from ChEMBL document CHEMBL5465560, “Selectivity Literature for EUbOPEN Chemogenomic Library” (2024).

Key:
[1] = target: STE20-like serine/threonine-protein kinase (Homo sapiens, UniProt Q9H2G2); test: Selectivity interaction (Competition-binding assay (DiscoverX)) EUB0000229b SLK
[2] = target: Ribosomal protein S6 kinase alpha-4 (Homo sapiens) (UniProt O75676); test: Selectivity interaction (KinomeScan (DiscoverX)) EUB0000311b RPS6KA4; conditions: at 1 µM
[3] = target: T1, Serine/threonine-protein kinase D1 (Homo sapiens) (UniProt Q15139); test: Selectivity interaction (KinomeScan (DiscoverX)) EUB0000618a PRKD1; conditions: at 10 µM
T1 sequence (whole entry): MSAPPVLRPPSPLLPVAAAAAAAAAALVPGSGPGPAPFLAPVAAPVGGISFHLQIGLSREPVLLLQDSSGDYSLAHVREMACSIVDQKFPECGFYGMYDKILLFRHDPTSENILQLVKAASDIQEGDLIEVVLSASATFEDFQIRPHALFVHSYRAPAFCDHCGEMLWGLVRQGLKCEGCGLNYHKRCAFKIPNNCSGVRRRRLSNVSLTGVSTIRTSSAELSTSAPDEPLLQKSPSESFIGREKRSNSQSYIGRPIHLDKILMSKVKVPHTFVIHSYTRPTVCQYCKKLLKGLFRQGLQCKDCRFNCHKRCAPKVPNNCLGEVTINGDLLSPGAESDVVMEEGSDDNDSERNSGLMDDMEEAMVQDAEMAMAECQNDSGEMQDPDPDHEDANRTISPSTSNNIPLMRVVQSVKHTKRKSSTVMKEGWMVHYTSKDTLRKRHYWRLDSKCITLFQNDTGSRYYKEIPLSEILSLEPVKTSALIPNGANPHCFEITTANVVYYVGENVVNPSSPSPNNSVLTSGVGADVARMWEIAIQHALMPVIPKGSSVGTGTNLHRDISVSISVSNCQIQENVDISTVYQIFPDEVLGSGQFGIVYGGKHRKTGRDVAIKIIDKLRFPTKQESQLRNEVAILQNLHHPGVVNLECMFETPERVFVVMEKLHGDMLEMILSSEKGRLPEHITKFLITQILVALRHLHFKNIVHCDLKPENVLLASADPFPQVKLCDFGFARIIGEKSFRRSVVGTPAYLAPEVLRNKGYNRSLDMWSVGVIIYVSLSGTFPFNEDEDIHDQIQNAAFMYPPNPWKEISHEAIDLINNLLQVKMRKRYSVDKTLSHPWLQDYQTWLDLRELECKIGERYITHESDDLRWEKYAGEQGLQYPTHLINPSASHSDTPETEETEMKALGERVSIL

[4] = target: Bone morphogenetic protein receptor type-1B (Homo sapiens, UniProt O00238); test: Selectivity interaction (KinomeScan (DiscoverX)) EUB0000618a BMPR1B; conditions: at 10 µM
[5] = target: T2, SNF-related serine/threonine-protein kinase (Homo sapiens) (UniProt Q9NRH2); test: Selectivity interaction (ActivX KiNativ screen (kinase selectivity in THP-1 cell lysates)) EUB0000639a SNRK; assay type: subcellular; conditions: lysate, at 5 µM
T2 sequence (whole entry): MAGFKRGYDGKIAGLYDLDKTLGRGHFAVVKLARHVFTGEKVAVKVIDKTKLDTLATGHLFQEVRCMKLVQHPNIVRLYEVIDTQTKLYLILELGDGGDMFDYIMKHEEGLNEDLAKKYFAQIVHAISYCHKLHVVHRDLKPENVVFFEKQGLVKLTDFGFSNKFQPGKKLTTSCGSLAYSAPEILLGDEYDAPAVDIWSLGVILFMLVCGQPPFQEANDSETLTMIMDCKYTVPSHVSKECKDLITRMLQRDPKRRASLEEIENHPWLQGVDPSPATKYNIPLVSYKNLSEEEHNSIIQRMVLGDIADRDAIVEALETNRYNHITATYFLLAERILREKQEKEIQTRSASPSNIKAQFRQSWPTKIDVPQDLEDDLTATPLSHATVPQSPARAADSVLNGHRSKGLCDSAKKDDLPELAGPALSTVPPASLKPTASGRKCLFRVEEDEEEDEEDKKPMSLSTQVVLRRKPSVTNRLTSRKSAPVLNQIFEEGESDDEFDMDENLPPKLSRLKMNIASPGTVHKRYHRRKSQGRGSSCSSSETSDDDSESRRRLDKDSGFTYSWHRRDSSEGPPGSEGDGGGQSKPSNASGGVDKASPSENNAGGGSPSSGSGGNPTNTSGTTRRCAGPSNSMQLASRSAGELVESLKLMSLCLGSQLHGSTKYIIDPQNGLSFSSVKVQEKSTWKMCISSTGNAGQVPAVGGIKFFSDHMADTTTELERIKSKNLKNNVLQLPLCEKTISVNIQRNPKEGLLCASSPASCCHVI

[6] = target: T3, Ephrin type-B receptor 3 (Homo sapiens) (UniProt P54753); test: Selectivity interaction (KinomeScan (DiscoverX)) EUB0000092b EPHB3; conditions: at 10 µM
T3 sequence (whole entry): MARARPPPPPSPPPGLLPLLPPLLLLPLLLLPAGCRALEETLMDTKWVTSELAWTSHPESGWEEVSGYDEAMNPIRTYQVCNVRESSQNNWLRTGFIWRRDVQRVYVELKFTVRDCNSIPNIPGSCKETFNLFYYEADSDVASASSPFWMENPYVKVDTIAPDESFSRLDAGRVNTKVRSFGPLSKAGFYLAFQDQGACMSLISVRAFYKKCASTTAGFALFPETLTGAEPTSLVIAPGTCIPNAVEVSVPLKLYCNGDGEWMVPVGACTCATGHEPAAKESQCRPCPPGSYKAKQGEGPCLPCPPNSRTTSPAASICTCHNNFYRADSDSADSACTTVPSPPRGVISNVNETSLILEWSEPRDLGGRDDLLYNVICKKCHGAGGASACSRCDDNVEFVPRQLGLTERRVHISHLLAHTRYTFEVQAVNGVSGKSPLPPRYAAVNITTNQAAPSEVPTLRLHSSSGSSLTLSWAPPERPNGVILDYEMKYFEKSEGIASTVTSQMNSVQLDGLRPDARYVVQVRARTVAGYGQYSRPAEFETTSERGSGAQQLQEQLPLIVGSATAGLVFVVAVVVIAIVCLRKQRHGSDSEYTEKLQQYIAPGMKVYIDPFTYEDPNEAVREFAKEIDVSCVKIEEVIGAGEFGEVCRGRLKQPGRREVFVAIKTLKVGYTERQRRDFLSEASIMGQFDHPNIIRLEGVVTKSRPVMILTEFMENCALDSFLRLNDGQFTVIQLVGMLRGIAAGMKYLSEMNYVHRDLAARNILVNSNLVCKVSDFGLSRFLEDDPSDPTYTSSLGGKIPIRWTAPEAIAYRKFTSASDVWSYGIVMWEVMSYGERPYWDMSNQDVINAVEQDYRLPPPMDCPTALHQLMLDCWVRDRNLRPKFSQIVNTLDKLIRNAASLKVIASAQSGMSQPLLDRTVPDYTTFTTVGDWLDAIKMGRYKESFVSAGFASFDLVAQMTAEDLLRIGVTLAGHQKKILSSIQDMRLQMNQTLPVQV

Sequence of STE20-like serine/threonine-protein kinase (Q9H2G2 whole entry): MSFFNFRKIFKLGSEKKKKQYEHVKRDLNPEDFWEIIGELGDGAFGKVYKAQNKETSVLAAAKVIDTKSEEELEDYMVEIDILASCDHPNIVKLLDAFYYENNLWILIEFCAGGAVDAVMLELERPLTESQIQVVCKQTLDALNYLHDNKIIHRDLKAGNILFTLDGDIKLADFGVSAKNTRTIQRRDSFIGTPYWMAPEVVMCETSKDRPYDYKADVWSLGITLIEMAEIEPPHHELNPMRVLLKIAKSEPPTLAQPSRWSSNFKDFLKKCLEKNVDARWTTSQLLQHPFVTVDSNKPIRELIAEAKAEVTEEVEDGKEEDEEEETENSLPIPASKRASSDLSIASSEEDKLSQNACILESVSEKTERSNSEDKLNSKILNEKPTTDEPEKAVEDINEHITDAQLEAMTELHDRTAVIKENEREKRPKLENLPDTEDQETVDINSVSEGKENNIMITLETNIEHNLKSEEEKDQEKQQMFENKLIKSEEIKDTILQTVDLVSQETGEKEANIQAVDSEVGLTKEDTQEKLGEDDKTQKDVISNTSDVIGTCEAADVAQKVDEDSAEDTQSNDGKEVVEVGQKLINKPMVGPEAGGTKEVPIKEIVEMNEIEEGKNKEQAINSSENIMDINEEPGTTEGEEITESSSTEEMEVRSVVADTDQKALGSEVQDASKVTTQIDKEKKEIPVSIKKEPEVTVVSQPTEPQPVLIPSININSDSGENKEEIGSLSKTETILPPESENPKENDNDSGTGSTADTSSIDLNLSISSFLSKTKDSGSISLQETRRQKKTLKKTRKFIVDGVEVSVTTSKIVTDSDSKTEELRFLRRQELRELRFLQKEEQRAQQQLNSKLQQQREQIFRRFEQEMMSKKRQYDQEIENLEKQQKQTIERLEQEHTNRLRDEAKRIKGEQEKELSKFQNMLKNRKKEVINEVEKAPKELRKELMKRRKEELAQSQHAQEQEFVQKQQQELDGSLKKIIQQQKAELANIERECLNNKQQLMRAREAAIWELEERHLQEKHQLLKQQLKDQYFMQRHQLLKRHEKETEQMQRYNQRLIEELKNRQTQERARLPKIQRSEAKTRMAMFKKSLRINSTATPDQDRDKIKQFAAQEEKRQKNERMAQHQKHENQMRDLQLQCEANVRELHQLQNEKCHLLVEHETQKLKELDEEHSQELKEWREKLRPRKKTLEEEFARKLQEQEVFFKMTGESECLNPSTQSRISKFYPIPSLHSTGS
Sequence of Bone morphogenetic protein receptor type-1B (O00238 whole entry): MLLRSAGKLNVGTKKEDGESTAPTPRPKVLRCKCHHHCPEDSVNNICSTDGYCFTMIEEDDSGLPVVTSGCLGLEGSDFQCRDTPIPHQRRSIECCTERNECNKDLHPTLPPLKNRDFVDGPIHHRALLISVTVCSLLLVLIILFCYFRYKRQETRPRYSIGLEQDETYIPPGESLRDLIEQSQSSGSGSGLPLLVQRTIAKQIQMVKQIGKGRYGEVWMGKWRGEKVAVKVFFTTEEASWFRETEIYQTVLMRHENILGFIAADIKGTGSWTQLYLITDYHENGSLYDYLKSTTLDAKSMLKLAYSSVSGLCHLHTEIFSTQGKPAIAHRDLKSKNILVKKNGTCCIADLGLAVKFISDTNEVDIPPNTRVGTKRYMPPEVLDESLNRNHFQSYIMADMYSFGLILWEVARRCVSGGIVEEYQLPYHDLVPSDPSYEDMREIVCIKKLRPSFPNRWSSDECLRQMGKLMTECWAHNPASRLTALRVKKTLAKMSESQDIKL
Sequence of Ribosomal protein S6 kinase alpha-4 (Homo sapiens) (O75676 whole entry, looked up): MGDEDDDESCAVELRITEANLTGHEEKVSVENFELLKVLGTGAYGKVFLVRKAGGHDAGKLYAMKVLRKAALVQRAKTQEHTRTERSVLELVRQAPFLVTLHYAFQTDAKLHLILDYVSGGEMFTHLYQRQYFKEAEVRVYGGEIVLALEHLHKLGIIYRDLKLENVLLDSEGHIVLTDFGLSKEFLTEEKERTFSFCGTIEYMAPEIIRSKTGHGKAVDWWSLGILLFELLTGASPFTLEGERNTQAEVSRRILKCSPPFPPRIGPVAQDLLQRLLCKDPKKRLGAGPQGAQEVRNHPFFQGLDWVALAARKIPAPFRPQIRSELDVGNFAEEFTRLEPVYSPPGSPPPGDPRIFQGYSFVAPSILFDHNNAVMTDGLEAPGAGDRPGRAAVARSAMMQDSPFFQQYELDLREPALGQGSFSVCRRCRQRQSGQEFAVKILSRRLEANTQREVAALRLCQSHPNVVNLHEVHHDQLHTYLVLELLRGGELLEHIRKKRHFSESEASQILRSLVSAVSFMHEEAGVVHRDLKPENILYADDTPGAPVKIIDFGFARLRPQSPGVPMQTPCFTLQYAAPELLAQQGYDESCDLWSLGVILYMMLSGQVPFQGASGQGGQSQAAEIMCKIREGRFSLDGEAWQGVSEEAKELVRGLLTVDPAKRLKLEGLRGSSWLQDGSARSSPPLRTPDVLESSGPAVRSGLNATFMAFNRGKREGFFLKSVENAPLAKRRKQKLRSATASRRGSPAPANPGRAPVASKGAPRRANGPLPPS

COc1cc(N(C)c2ccnc3ccc(C(F)(F)F)cc23)cc(OC)c1OC
Kd [1]: > 10 µM

CCc1ccccc1C(=O)Nc1n[nH]c2c(C)c(F)c(C3C(C#N)=C(C)N(C)C(C)=C3C#N)cc12 [BAY-3827]
% of control [2]: 8.9%

O[C@H]1CC[C@H](Nc2ncc3nc(Nc4c(F)cc(F)cc4F)n([C@H]4CCOC4)c3n2)CC1
% of control [3]: 46% | % of control [4]: 100%

CC[C@@H]1[C@H](F)C(=O)N[C@@H]1COc1nccc2cc(C(N)=O)c(OC)cc12 [ZIMLOVISERTIB]
% of inhibition [5]: 16.9%

CCC(=O)N1CCN(c2ccc(-n3c(=O)ccc4cnc5ccc(-c6cnc7ccccc7c6)cc5c43)cc2C(F)(F)F)CC1
% of control [6]: 85%
